Reference: patent publication US20240366536A1, “MODULATORS OF A POTASSIUM CHANNEL AND OF TRPV1 CHANNEL AND USES THEREOF” (Bsense Bio Therapeutics Ltd., priority 2022, published 2024)
Converted amounts (≈) assume the structure as drawn. Read-outs that look alike come from different tables or passages of the source.

Tests used:
hTRPV1 [1] = molecular target: T1, hTRPV1 (Homo sapiens (Human), UniProt Q8NER1); experiment: High content screen (HCS) Fluo-8 No Wash calcium flux assay, capsaicin activation, CHO cells expressing hTRPV1; format: cell-based; conditions: CHO cells expressing hTRPV1, fluorescent HCS; read-out: TRPV1 IC50
T1 sequence (Q8NER1 whole entry): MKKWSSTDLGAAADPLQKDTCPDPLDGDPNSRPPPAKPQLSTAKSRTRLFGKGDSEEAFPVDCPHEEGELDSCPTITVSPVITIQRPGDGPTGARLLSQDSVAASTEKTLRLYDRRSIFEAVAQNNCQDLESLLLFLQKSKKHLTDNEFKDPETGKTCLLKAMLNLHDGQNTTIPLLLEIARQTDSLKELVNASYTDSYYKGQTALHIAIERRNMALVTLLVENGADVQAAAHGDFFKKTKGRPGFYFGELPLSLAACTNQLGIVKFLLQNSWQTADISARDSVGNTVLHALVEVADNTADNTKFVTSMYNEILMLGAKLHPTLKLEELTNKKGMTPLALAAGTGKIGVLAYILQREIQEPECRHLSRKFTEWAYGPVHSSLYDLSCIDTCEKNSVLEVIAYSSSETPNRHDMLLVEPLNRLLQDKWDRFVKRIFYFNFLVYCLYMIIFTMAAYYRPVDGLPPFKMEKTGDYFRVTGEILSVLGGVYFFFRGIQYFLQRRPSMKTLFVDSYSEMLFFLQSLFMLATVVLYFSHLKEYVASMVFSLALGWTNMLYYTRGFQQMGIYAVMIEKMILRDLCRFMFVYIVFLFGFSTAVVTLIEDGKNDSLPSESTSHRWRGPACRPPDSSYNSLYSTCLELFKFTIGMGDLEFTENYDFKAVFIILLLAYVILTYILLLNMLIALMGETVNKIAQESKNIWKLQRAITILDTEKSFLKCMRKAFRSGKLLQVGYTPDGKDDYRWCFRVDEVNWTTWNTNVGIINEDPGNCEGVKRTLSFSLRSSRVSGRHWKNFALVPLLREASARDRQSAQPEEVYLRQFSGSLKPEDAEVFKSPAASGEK

human Kv7.2/3 channels = human Kv7.2/3 channels (Homo sapiens (Human), UniProt O43525+O43526); experiment: High content screen (HCS) FLIPR Potassium (thallium flux) assay, CHO/hKv7.2/3 cell line; format: cell-based; conditions: head prints IC50; channel activation in CHO/hKv7.2/3, fluorescent HCS; read-out: Kv7.2/7.3 IC50
Procedure: Cell culture: […] To maintain the stability of human Kv7.2/7.3 expression antibiotic selection was added (Puromycin g/ml). High content screen (HCS) using FLIPR Potassium Assay Kit: FLIPR Potassium Assay Kit ([…] FLIPR Potassium Assay Explorer Kits, Molecular Devices) was used with the CHO/hKv7.2/3 cell line to screen molecules against the hKv7.2/7.3 ion channel target. The assay exploits the permeability of thallium ions (Tl+) through potassium (K^+) channels. In this assay, Tl+ indicator dye is used to produce a bright fluorescent signal upon the binding to Tl+ conducted through the potassium channels. The intensity of the Tl+ signal is proportional to the number of potassium channels in the open state. Therefore, it provides a functional indication of the potassium channel activity. To activate the voltage-gate potassium channels, the cells were stimulated with a mixture of K+ and Tl+ to depolarize the cell membrane. The fluorescence increase in the assay represents the influx of Tl+ into the cell specifically through the potassium channel, providing a functional read-out of hKv7.2/3 activity using a fluorescent plate reader coupled with injectors used to activate the channels. […] Tecan Spark reader plate injectors were primed with Tl+ (1 mM Tl2SO4) or Tl++K+ (1 mM Tl2SO4; 5 mM K2SO4) for channel activation and data correction. […]

[2] = Metabolic stability in human liver microsomes (HLM Clint); format: in vitro ADME
[3] = Solubility assay (kinetic solubility); format: physicochemical; set-up: Kinetic Sol.: unit not given here
[4] = LogD measurement at pH 7.4; format: physicochemical
[5] = test system: primary neonatal rat DRG neurons; experiment: Rat DRG neuron firing, current-induced and capsaicin-induced (current clamp); format: cell-based
Text: rDRGs isolation and primary cell culture: Briefly, rat DRGs from all spinal levels were carefully removed and collected in HBSS on ices, connective tissue of the epineurium surrounding the ganglion was removed and cells were dissociated using Collagenase-II and trypsin dissociation solutions. DRGs were dissociated further, passed through glass Pasteur pipettes to obtain single cells. Then dissociation solution was changed to 5% FBS containing DRG neuronal culture medium and plated onto ECL coated 12 mm cover glass.
Additional rDRGs experiments were performed using Lonza primary neonatal rat (Sprague Dawley neonatal; P2,3) DRG neurons (R-DRG-505, Lonza) plated and cultured according to the manufacturer.
These cryopreserved DRG cells were prepared from freshly isolated and dissociated spinal cord dorsal root ganglia and comprise a normal distribution of neurons and glia (schwann cells).
Electrophysiology: Cells were used for electrophysiological recording in the 48 hours following rDRG isolation. Round small neurons (20-40 m in diameter) were selected for electrophysiology recordings, to select for small nociceptive neurons that propagate pain sensation in vivo and that are expressing both Kv7.2/3 and TRPV1 targets. Membrane excitability was monitored using current clamp. Positive current steps of different amplitude were injected (400 ms) to induce spikes trains before and following compound application.
The inhibitory potency of the newly designed compounds was studied on neuronal excitability in an experimental system of high physiological relevance, primary neonatal rat DRG neurons (Sprague Dawley neonatal; P2,3; R-DRG-505, Lonza). These cryopreserved DRG cells are prepared from freshly isolated and dissociated spinal cord dorsal root ganglia and comprise a normal distribution of neurons and glia (schwann cells).
The inhibitory potency was tested both on current-induced and Capsaicin-induced neuronal activity.

hERG [6] = molecular target: T2, hERG (Homo sapiens (Human), UniProt Q12809); experiment: in vitro; conditions: hamster, CHO cells that express human hERG
T2 sequence (Q12809 whole entry): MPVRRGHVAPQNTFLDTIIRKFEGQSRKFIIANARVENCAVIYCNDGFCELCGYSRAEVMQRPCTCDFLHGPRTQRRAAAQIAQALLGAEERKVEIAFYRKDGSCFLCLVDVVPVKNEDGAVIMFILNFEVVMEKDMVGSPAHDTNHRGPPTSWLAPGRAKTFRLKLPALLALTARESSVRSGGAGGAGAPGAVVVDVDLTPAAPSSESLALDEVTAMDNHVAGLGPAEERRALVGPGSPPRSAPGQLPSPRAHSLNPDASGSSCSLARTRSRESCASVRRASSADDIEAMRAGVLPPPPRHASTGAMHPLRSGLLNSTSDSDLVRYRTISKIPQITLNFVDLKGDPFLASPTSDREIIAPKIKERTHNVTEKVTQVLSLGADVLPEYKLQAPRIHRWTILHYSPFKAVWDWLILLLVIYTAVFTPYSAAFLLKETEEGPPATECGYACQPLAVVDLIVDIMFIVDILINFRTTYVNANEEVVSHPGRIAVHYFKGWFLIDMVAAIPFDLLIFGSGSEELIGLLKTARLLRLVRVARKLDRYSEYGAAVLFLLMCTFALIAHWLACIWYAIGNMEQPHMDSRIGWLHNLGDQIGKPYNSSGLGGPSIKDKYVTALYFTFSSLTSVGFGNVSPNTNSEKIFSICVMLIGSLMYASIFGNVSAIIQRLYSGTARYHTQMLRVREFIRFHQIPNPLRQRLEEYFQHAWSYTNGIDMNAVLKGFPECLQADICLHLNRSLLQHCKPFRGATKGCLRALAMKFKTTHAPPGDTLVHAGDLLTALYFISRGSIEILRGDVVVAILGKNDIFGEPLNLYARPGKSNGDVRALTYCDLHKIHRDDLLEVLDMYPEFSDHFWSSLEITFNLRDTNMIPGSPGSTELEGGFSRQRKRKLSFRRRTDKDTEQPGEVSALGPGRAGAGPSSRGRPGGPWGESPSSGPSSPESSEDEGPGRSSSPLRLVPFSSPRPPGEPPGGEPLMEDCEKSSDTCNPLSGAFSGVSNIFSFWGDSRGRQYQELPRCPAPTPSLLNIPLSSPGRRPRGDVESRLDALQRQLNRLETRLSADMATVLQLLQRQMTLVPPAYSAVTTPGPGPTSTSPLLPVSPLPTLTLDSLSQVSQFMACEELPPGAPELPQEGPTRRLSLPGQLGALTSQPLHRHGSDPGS

hERG [7] = molecular target: T2, hERG; experiment: cell-based
hTRPV1 [8] = molecular target: T1, hTRPV1; experiment: TRPV1 electrophysiology in CHO cells co-expressing hKv7.2/3 and hTRPV1; format: cell-based; conditions: also when co-applied with retigabine
Text: To exemplify the functional coupling of Kv7.2/3 and TRPV1, stably expressing Kv7.2/3 cells were transfected with human TRPV1 and their response to current ramp to −40 mV (Kv activation) and capsaicin (TRPV1 activation) was examined electrophysiologically.

hERG [9] = molecular target: T2, hERG; experiment: hERG FLIPR Potassium assay, CHO/hERG cell line; conditions: at the concentration given as hERG IC50 bound
human sensory neurons = experiment: Spontaneous activity of human sensory neurons differentiated from hNPCs; format: cell-based; conditions: 5 μM, reversible
Procedure: Cell culture and differentiation: Human PSC-derived neural progenitor cells (Stem Cell Catalog No. 70901 and 70902) were cultured and expanded on Matrigel coated 6-wells plates, using neuronal progenitor medium containing: Neurobasal media supplemented by non-essential amino-acids, 1%; Glutamax, 1%; B27, 2%, FGF2, 20 ng/ml). hNPC were then plated onto PDL and Matrigel coated 12 mm coverglass at a density of about 50,000 cells/well of a 6 well, in DMEM/F12; 10% KSR; 1% P/S and A83-01 (2 M) from days 0-5. From days 0-9 the medium contained also CHIR99021 (6 μM). From Day 3-9 the medium included R04929097 (2 μM) and SU5402 (3 μM). From day 9 and onwards, the media change (Neurobasal Media contains: NT-3; BDNF; NGF; GDNF) was performed every other day by replacing only 50% of the media after CO2 equilibrating. […]
Electrophysiology: To characterize the neuronal properties with electrophysiology recordings, round small neurons (20-40 μm in diameter) were selected from day 31 and onwards. Cells were monitored for their polarized negative membrane potential and for their ability to evoke consistent spikes train responses to repeated positive current injections as a mark of achieving electrical maturation before testing the effect of the tested compounds on neuronal excitability. Membrane excitability was monitored using current clamp. […]

[10] = test system: NGF-treated rat DRG neurons; experiment: Neuropathic model in rat DRGs (NGF pretreatment, capsaicin induced tetanic burst); format: cell-based; conditions: NGF 100 ng/ml pretreatment, compound at 100 nM
Procedure: FIG. 8B presents representative data obtained in assays in which neurons were pretreated with NGF 100 ng/ml for 4-5 days. NGF Non-treated rat DRGs were stimulated by repeated capsaicin application with and without 421-6 at 2 μM (top panel) or 100 nM (Middle panel).
DRGs treated with NGF show tetanic action potential burst in response to CAP application, mimicking neuropathic like response. See, Background Art FIG. 8A. NGF enhances TRPV1 function using Calcium-dependent fluorescence, F, relative to maximal fluorescence, Fmax, as a function of time from a single HEK293 cell stably transfected with TrkA and transiently transfected with hTRPV1. Pulses of capsaicin (100 nM, applied as shown at top) elicited submaximal increases in [Ca]i. Exposure to NGF (100 ng/ml, see top) enhanced the capsaicin induced calcium increase. Arrows show responses used for calculation of sensitization ratio.

Kv7.3/5, Kv7.4 = conditions: positive control, Kv7.3/5, Kv7.4 assay; read-out: Known IC50; cited from earlier work

Compound	HLM Clint [2] [µL/min/mg]	hERG, percent in parentheses beside the IC50 bound (hERG [9])	Kinetic Sol. [3]	LogD [4]	further results
CC(C)c1cc(Cl)cc(Cl)c1C(O)c1ccc(F)c(CC(=O)NCC2(O)CCC2)c1 (racemic) [Compound 533]					IC50 (hTRPV1 [1]): 21.2 µM; IC50 (human Kv7.2/3 channels): 1.5 µM; microsomal CLint [2]: 658 µL/min/mg; solubility kinetic at 10 min ([3]; HHBS buffer with 0.2% DMSO, aqueous with cosolvent or surfactant or cyclodextrin, kinetic from dmso stock, read-out: Kinetic Sol.): 41 µM (≈ 18.6 µg/mL); LogD ([4]; lipid phase / aqueous phase, read-out: LogD): 4.36; capsaicin-evoked rat DRGs spiking ([5]; 100 nM): inhibition is gained; current-evoked rat DRGs spiking ([5]; 100 nM): inhibition decreases; inhibition at 1.5 h, 50 µM (hERG [6]): 0%; IC50 (hERG [7]): > 50 µM
CC(C)(C)c1ccc(/C=C/C(=O)Nc2ccc3c(c2)OCCO3)cc1 [AMG9810, reference compound]					reduction of Capsaicin evoked firing ([5]; 50 nM): about 50%; TRPV1-inhibition potency gain in cells co-expressing hKv7.2/3 and hTRPV1 (hTRPV1 [8]): failure to gain TRPV1-inhibition potency
COC[C@@H](CO)NC(=O)Cc1cc(Sc2c(Cl)cc(Cl)cc2C(C)C)ccc1F [Compound 414]	686	(0%)			
COC[C@@H](CO)NC(=O)Cc1cc(Sc2c(Cl)cc(F)cc2C(C)C)ccc1F [Compound 415]	839	(0%)	26.7	4.25	spontaneous neuronal activity (human sensory neurons): significantly reduced
CC(C)c1cc(Cl)cc(Cl)c1C(=O)c1ccc(F)c(CC(=O)NCC(C)(C)O)c1 [Compound 417-4]	91.84	(0%)	66	4.08	
CC(C)c1cc(Cl)cc(Cl)c1C(O)c1ccc(F)c(CC(=O)NCC(C)(C)O)c1 (stereo not drawn) [Compound 417]	89.1	(0%)			
Cc1cn(-c2ccc(F)c(CC(=O)NCC(C)(C)O)c2)c2c(Cl)cc(Cl)cc12 [Compound 421-6]		(0%)			inhibition of current induced AP activity ([5]; 100 nM): 10.1±3.4%; inhibition of current induced AP responses ([5]; 500 nM): 51.2±8.4%; inhibition of the capsaicin induced AP response ([5]; 500 nM): 86.5±8.4%; inhibition of AP response to Capsaicin activation ([5]; 2 μM): 97.9±2.1%; inhibition of AP response to current activation ([5]; 2 μM): 77.7±5.6%; capsaicin induced tetanic action potential burst [10]: alleviates
CC(C)c1cc(Cl)cc(Cl)c1C(=O)c1ccc(F)c(CC(=O)NCC2(O)CCC2)c1 [Compound 569]	120		27	4.47	
CC(C)c1cc(Cl)cc(Cl)c1C(=O)c1ccc(F)c(CC(=O)NCC2(O)CC2)c1 [Compound 573]	441		24	4.34	
O=C(Cc1cncc(-n2cc(Cl)c3cc(Cl)cc(Cl)c32)c1)NCCO [Compound 649]	27.3		10	4.19	
O=C(Cc1cncc(-n2cc(Cl)c3cc(Cl)cc(Cl)c32)c1)N[C@@H]1COC[C@H]1O [Compound 661]	72	(0%)	40	3.55	
O=C(Cc1cncc(-n2cc(Cl)c3cc(Cl)cc(Cl)c32)c1)N[C@H]1COC[C@@H]1O [Compound 663]	53.6		26	3.52	
CCOC(=O)Nc1ccc(NCc2ccc(F)cc2)cc1N [Retigabine, N-(2-amino-4-(4-fluorobenzylamino)-phenyl)carbamic acid ethyl ester]					IC50 (Kv7.3/5, Kv7.4): 1.5 to 5 µM
